Data taken from patent US20230391768A2, “IMIDAZOPYRIDINE DERIVATIVES AND AZA-IMIDAZOPYRIDINE DERIVATIVES AS JANUS KINASE 2 INHIBITORS AND USES THEREOF” (Dana-Farber Cancer Institute, Inc., priority 2018, published 2023).

Experiments:
Experiment in all cases: KINOMEscan
Format in all cases: binding
Settings in all cases: read-out: percent of control
[1] = biological target: ABL1-phosphorylated (Homo sapiens (Human), UniProt P00519)
Protocol: (§1) In vitro profiling of Compound I-2 (1 μM) was performed using the DiscoveRx KINOMEscan® platform.

[2] = biological target: ADCK4 (Homo sapiens (Human), UniProt Q96D53)
Protocol: as §1

[3] = biological target: ALK (Homo sapiens (Human), UniProt Q9UM73)
Protocol: as §1

[4] = biological target: ASK1 (Homo sapiens (Human), UniProt Q99683)
Protocol: as §1

[5] = biological target: CAMK2G (Homo sapiens (Human), UniProt Q13555)
Sequence of CAMK2G (Q13555 whole entry): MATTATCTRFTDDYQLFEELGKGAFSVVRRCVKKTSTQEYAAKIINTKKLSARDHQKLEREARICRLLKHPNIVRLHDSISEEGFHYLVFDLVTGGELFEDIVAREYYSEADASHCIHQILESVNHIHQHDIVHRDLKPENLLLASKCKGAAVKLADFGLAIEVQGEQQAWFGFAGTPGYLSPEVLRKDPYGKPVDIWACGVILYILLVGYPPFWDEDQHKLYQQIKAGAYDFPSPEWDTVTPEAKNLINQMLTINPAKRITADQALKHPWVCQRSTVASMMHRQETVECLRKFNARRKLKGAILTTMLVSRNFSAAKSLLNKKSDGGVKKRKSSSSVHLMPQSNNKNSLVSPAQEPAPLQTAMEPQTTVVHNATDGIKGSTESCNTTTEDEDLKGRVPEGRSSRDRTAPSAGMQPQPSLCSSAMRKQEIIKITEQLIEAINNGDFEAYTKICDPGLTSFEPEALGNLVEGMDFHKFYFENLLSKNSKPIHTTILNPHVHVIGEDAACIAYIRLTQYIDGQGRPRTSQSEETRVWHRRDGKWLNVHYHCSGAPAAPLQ
Protocol: as §1

[6] = biological target: CAMKK1 (Homo sapiens (Human), UniProt Q8N5S9)
Protocol: as §1

[7] = biological target: CDC2L2 (Homo sapiens (Human), UniProt Q9UQ88)
Sequence of CDC2L2 (Q9UQ88 whole entry): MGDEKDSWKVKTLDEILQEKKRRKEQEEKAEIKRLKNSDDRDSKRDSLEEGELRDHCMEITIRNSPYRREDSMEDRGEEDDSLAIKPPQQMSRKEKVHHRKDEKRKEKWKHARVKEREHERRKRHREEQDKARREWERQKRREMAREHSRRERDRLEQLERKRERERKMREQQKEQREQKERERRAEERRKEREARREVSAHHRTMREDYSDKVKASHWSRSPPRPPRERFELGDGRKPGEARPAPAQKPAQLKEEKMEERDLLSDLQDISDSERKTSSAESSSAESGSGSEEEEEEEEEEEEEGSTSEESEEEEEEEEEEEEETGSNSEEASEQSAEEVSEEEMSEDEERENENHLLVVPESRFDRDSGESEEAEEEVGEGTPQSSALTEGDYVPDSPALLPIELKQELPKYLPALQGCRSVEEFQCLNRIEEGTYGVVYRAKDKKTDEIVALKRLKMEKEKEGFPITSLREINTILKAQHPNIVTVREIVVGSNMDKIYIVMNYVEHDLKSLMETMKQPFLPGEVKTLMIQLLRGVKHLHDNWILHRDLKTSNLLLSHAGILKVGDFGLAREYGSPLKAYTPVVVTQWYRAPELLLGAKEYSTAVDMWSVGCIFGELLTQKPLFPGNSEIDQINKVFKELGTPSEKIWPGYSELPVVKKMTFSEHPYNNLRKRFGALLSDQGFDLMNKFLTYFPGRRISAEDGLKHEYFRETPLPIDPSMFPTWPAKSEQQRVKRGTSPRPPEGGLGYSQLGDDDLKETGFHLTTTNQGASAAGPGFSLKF
Protocol: as §1

[8] = biological target: CHEK2 (Homo sapiens (Human), UniProt O96017)
Protocol: as §1

[9] = biological target: CSNK1E (Homo sapiens (Human), UniProt P49674)
Protocol: as §1

[10] = biological target: CSNK1G1 (Homo sapiens (Human), UniProt Q9HCP0)
Protocol: as §1

[11] = biological target: CSNK1G3 (Homo sapiens (Human), UniProt Q9Y6M4)
Protocol: as §1

[12] = biological target: DDR1 (Homo sapiens (Human), UniProt Q08345)
Protocol: as §1

[13] = biological target: EPHA2 (Homo sapiens (Human), UniProt P29317)
Sequence of EPHA2 (P29317 24-976): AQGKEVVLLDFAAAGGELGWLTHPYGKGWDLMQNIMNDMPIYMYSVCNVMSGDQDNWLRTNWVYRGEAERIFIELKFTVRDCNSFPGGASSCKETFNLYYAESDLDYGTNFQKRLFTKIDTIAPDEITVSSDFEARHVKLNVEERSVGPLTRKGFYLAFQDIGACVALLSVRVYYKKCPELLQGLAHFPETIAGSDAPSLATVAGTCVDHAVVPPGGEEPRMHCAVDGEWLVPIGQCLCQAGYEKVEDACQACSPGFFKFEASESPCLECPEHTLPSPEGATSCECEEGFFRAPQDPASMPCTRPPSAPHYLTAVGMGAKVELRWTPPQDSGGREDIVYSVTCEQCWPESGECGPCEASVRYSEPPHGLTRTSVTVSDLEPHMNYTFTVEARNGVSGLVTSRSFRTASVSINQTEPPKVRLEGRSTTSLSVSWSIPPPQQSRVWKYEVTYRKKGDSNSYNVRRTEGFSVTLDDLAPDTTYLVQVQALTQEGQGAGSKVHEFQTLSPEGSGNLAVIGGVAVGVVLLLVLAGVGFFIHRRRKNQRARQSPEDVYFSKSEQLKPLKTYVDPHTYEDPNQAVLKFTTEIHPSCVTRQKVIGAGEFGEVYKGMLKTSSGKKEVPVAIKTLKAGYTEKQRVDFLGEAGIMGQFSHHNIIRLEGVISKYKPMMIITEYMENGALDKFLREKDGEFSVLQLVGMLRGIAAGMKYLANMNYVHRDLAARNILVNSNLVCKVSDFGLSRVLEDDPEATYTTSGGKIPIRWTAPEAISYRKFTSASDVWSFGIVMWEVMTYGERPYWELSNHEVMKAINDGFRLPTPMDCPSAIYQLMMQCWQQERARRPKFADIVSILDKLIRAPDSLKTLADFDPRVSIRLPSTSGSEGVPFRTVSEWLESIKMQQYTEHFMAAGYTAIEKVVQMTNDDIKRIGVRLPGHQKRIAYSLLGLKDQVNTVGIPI
Protocol: as §1

[14] = biological target: ERK8 (Homo sapiens (Human), UniProt Q8TD08)
Protocol: as §1

[15] = biological target: FLT3 (D835V) (Homo sapiens (Human), UniProt P36888, D835V)
Protocol: as §1

[16] = biological target: FLT3-autoinhibited (Homo sapiens (Human), UniProt P36888)
Protocol: as §1

[17] = biological target: FYN (Homo sapiens (Human), UniProt P06241)
Protocol: as §1

[18] = biological target: GRK4 (Homo sapiens (Human), UniProt P32298)
Protocol: as §1

[19] = biological target: GRK7 (Homo sapiens (Human), UniProt Q8WTQ7)
Protocol: as §1

[20] = biological target: HUNK (Homo sapiens (Human), UniProt P57058)
Protocol: as §1

[21] = biological target: JAK2(JH1domain-catalytic (Homo sapiens (Human), UniProt O60674))
Sequence of JAK2(JH1domain-catalytic (O60674 849-1124): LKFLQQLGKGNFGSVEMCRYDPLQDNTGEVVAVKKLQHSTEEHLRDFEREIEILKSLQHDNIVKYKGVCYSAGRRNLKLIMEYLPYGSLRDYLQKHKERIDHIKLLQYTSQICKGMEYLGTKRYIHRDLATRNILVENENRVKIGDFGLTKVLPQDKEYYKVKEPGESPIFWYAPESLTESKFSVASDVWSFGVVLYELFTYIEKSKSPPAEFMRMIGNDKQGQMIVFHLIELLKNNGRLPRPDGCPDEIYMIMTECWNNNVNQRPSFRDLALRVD
Protocol: as §1

[22] = biological target: KIT (Homo sapiens (Human), UniProt P10721)
Protocol: as §1

[23] = biological target: MAP3K15 (Homo sapiens (Human), UniProt Q6ZN16)
Protocol: as §1

[24] = biological target: MLCK (Homo sapiens (Human), UniProt Q32MK0)
Protocol: as §1

[25] = biological target: MYO3A (Homo sapiens (Human), UniProt Q8NEV4)
Protocol: as §1

[26] = biological target: NEK1 (Homo sapiens (Human), UniProt Q96PY6)
Protocol: as §1

[27] = biological target: NEK2 (Homo sapiens (Human), UniProt P51955)
Protocol: as §1

[28] = biological target: PDGFRB (Homo sapiens (Human), UniProt P09619)
Sequence of PDGFRB (P09619 33-1106): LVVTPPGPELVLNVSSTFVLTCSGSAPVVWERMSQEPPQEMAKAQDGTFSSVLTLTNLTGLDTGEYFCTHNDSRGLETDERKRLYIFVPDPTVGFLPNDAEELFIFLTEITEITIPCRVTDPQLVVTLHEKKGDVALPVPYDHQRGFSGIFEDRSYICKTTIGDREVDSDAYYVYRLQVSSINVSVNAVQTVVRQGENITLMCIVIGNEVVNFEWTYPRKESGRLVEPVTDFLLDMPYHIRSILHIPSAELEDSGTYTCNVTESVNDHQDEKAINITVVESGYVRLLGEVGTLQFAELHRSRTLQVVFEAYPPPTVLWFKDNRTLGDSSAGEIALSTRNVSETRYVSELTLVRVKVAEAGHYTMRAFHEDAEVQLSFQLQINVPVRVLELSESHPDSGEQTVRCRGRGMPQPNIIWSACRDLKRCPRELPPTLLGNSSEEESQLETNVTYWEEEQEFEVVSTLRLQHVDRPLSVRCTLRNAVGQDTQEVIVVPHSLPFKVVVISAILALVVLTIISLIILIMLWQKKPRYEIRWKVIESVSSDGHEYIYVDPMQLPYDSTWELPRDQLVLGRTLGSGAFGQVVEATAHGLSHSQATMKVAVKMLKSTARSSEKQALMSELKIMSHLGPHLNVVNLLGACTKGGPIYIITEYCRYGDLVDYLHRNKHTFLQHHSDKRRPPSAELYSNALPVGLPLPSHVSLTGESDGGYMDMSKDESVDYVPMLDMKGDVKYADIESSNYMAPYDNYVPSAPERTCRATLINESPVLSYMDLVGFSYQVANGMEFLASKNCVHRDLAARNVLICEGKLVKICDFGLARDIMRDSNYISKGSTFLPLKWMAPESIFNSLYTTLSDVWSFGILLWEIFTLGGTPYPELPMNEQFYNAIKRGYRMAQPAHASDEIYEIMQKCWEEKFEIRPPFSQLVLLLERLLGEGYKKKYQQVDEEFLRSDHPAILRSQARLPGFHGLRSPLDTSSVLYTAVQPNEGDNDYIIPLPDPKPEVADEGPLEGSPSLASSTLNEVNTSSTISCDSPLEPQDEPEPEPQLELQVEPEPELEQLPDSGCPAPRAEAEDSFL
Protocol: as §1

[29] = biological target: PKMYT1 (Homo sapiens (Human), UniProt Q99640)
Protocol: as §1

[30] = biological target: PKN2 (Homo sapiens (Human), UniProt Q16513)
Protocol: as §1

[31] = biological target: PRKCH (Homo sapiens (Human), UniProt P24723)
Protocol: as §1

[32] = biological target: PRKG2 (Homo sapiens (Human), UniProt Q13237)
Protocol: as §1

[33] = biological target: RET (V804L) (Homo sapiens (Human), UniProt P07949, V804L)
Sequence of RET (V804L) (P07949 29-1114 V804L): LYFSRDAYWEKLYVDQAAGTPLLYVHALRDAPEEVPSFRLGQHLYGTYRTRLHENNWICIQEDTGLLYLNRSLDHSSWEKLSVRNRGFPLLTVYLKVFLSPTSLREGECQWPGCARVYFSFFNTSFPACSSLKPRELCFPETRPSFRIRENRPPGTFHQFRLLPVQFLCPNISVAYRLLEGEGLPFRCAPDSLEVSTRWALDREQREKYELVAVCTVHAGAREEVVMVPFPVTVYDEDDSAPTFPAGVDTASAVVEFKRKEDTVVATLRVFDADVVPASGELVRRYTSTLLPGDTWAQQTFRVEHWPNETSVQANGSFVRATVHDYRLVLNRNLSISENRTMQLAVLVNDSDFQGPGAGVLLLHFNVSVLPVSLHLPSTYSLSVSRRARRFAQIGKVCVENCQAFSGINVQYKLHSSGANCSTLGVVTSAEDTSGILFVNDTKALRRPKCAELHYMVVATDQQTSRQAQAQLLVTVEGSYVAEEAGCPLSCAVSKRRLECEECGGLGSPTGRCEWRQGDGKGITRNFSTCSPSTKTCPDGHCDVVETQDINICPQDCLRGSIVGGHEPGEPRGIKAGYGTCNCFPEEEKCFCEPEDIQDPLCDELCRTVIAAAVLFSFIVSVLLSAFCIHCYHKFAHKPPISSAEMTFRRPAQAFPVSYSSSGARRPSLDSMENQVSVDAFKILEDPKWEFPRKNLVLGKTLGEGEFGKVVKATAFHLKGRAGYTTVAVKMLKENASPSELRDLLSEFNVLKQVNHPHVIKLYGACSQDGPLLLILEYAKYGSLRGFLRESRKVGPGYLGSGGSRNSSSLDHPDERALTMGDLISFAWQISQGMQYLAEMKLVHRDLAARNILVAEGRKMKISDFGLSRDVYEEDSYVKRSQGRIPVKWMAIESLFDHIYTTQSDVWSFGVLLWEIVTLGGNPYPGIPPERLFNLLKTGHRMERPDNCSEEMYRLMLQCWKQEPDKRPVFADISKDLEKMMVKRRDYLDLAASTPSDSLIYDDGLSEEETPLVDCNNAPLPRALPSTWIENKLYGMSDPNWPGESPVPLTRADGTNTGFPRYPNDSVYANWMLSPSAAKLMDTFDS
Protocol: as §1

[34] = biological target: RPS6KA4 (Kin.Dom.1-N-terminal) (Homo sapiens (Human), UniProt O75676)
Sequence of RPS6KA4 (Kin.Dom.1-N-terminal) (O75676 33-301): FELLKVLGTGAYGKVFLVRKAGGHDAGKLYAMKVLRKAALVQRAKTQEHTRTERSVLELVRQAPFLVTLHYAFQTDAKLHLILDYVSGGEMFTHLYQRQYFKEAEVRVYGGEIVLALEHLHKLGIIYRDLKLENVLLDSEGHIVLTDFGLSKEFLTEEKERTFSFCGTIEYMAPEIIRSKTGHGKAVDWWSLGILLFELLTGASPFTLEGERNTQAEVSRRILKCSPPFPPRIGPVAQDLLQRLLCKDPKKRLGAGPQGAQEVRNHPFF
Protocol: as §1

[35] = biological target: RSK3 (Kin.Dom.1-N-terminal) (Homo sapiens (Human), UniProt Q15349)
Protocol: as §1

[36] = biological target: SGK3 (Homo sapiens (Human), UniProt Q96BR1)
Protocol: as §1

[37] = biological target: STK39 (Homo sapiens (Human), UniProt Q9UEW8)
Protocol: as §1

[38] = biological target: TLK1 (Homo sapiens (Human), UniProt Q9UKI8)
Protocol: as §1

[39] = biological target: WNK1 (Homo sapiens (Human), UniProt Q9H4A3)
Protocol: as §1

| SMILES | remaining binding at 1 µM [1] [%] | remaining binding at 1 µM [2] [%] | remaining binding at 1 µM [3] [%] | remaining binding at 1 µM [4] [%] | remaining binding at 1 µM [5] [%] | remaining binding at 1 µM [6] [%] | remaining binding at 1 µM [7] [%] | remaining binding at 1 µM [8] [%] | remaining binding at 1 µM [9] [%] | remaining binding at 1 µM [10] [%] | remaining binding at 1 µM [11] [%] | remaining binding at 1 µM [12] [%] | remaining binding at 1 µM [13] [%] | remaining binding at 1 µM [14] [%] | remaining binding at 1 µM [15] [%] | remaining binding at 1 µM [16] [%] | remaining binding at 1 µM [17] [%] | remaining binding at 1 µM [18] [%] | remaining binding at 1 µM [19] [%] | remaining binding at 1 µM [20] [%] | further results |
| --- | --- | --- | --- | --- | --- | --- | --- | --- | --- | --- | --- | --- | --- | --- | --- | --- | --- | --- | --- | --- | --- |
| CCN1CCN(Cc2cc(NC(=O)c3ccc(C)c(-c4ccc5nc(NC(=O)C6CC6)cn5n4)c3)cc(C(F)(F)F)c2)CC1 [Compound I-2, 3-(2-(cyclopropanecarboxamido)imidazo[1,2-b]pyridazin-6-yl)-N-(3-((4-ethylpiperazin-1-yl)methyl)-5-(trifluoromethyl)phenyl)-4-methylbenzamide] | 0.1 | 75 | 8.7 | 97 | 94 | 12 | 27 | 90 | 86 | 100 | 96 | 0.05 | 1.8 | 2.2 | 5.3 | 56 | 4.1 | 81 | 100 | 80 | remaining binding at 1 µM [21]: 7.9%; remaining binding at 1 µM [22]: 0%; remaining binding at 1 µM [23]: 55%; remaining binding at 1 µM [24]: 93%; remaining binding at 1 µM [25]: 85%; remaining binding at 1 µM [26]: 95%; remaining binding at 1 µM [27]: 84%; remaining binding at 1 µM [28]: 0%; remaining binding at 1 µM [29]: 100%; remaining binding at 1 µM [30]: 77%; remaining binding at 1 µM [31]: 86%; remaining binding at 1 µM [32]: 100%; remaining binding at 1 µM [33]: 0.15%; remaining binding at 1 µM [34]: 50%; remaining binding at 1 µM [35]: 100%; remaining binding at 1 µM [36]: 100%; remaining binding at 1 µM [37]: 74%; remaining binding at 1 µM [38]: 100%; remaining binding at 1 µM [39]: 100% |
| CCN1CCN(Cc2cc(NC(=O)c3ccc(C)c(-c4ccc5nc(NC(=O)C6CC6)cn5c4)c3)cc(C(F)(F)F)c2)CC1 [Compound I-6, 3-(2-(cyclopropanecarboxamido)imidazo[1,2-a]pyridin-6-yl)-N-(3-((4-ethylpiperazin-1-yl)methyl)-5-(trifluoromethyl)phenyl)-4-methylbenzamide] | 0.1 | 91 | 16 | 100 | 95 | 53 | 34 | 93 | 93 | 96 | 92 | 0.15 | 0.15 | 3.1 | 7.7 | 58 | 3.7 | 98 | 97 | 96 | remaining binding at 1 µM [21]: 6.5%; remaining binding at 1 µM [22]: 0%; remaining binding at 1 µM [23]: 95%; remaining binding at 1 µM [24]: 85%; remaining binding at 1 µM [25]: 66%; remaining binding at 1 µM [26]: 97%; remaining binding at 1 µM [27]: 100%; remaining binding at 1 µM [28]: 0%; remaining binding at 1 µM [29]: 100%; remaining binding at 1 µM [30]: 100%; remaining binding at 1 µM [31]: 100%; remaining binding at 1 µM [32]: 99%; remaining binding at 1 µM [33]: 0%; remaining binding at 1 µM [34]: 66%; remaining binding at 1 µM [35]: 95%; remaining binding at 1 µM [36]: 100%; remaining binding at 1 µM [37]: 93%; remaining binding at 1 µM [38]: 97%; remaining binding at 1 µM [39]: 100% |
